According to US8765741B2, “5,6-dihydro-1H-pyridin-2-one compounds” (Anadys Pharmaceuticals, Inc., priority 2007, dated 2014):

Each compound was assayed against NS5B polymerase (Hepatitis C virus genotype 1b, UniProt P26663) (assay: biochemical). Settings: not given.
Procedure: Compounds were tested for HCV polymerase inhibition. Assays were performed in a 96-well streptavidin-coated FlashPlate using 20 nM enzyme, 0.5 μCi of [α-^33P]GTP, 0.6 μM GTP, and 250 nM 5′biotinylated oligo (rG13)/poly rC in 20 mM Tris-HCl, pH 7.5, 5 mM MgCl2, 5 mM dithiothreitol, 0.1 g/L bovine serum albumin, and 100 U/mL RNAse inhibitor. The reaction was stopped by aspiration after 75 min at 28° C. and the plate was washed several times. After washing and drying the plate, incorporated radioactivity was counted using a Microbeta scintillation counter. IC50 values were calculated relative to the uninhibited control and inhibition data were fitted to a 4-parameter IC50 equation.

Sequence of NS5B polymerase (P26663 2420-3010): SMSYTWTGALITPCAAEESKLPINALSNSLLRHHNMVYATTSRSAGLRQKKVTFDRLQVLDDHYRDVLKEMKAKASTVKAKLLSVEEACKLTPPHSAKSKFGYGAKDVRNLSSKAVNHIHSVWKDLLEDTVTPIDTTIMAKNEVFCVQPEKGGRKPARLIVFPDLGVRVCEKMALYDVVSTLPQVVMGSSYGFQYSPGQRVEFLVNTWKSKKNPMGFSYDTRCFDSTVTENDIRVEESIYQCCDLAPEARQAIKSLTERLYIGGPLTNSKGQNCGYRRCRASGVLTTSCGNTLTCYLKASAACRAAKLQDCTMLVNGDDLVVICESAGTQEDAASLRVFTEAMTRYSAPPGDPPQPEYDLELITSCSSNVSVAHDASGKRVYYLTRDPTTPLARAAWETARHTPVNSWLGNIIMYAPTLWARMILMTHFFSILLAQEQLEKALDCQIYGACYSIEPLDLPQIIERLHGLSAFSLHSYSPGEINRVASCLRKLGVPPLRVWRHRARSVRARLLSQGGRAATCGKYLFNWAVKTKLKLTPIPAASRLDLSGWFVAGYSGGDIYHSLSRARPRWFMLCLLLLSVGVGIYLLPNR

`CS(=O)(=O)Nc1ccc2c(c1)S(=O)(=O)N=C(C1=C(O)C3C4CCC(C4)C3N(Cc3ccc(F)cc3)C1=O)N2` (racemic) [Example 1, (rac-di-exo)-N-{3-[3-(4-Fluoro-benzyl)-6-hydroxy-4-oxo-3-aza-tricyclo[6.2.1.0^2,7]undec-5-en-5-yl]-1,1-dioxo-1,4-dihydro-1λ^6-benzo[1,2,4]thiadiazin-7-yl}-methanesulfonamide] showed an IC50 of less than 20 nM.

Same assay, conditions: NS5B polymerase inhibition; 20 nM enzyme, 75 min at 28° C.

With `CS(=O)(=O)Nc1ccc2c(c1)S(=O)(=O)N=C(C1=C(O)C3C4CCC(C4)C3N(Cc3ccc(F)cc3)C1=O)N2` (racemic) [Example 2, (rac-di-endo)-N-{3-[3-(4-Fluoro-benzyl)-6-hydroxy-4-oxo-3-aza-tricyclo[6.2.1.0^2,7]undec-5-en-5-yl]-1,1-dioxo-1,4-dihydro-1λ^6-benzo[1,2,4]thiadiazin-7-yl}-methanesulfonamide] the IC50 was less than 20 nM.

Same assay, conditions: NS5B polymerase inhibition; 20 nM enzyme, 75 min at 28° C.; read-out: IC50

First: CS(=O)(=O)Nc1ccc2c(c1)S(=O)(=O)N=C(C1=C(O)C3C4CCC(C4)C3N(Cc3ccc(F)cn3)C1=O)N2 (racemic) [Example 3, (rac-di-endo)-N-{3-[3-(5-Fluoro-pyridin-2-ylmethyl)-6-hydroxy-4-oxo-3-aza-tricyclo[6.2.1.0^2,7]undec-5-en-5-yl]-1,1-dioxo-1,4-dihydro-1λ^6-benzo[1,2,4]thiadiazin-7-yl}-methanesulfonamide]
Second: CS(=O)(=O)Nc1ccc2c(c1)S(=O)(=O)N=C(C1=C(O)C3C4CCC(O4)C3N(Cc3ccc(F)cc3)C1=O)N2 (racemic) [Example 8, (rac-di-exo)-N-{3-[3-(4-Fluoro-benzyl)-6-hydroxy-4-oxo-11-oxa-3-aza-tricyclo[6.2.1.0^2,7]undec-5-en-5-yl]-1,1-dioxo-1,4-dihydro-1λ^6-benzo[1,2,4]thiadiazin-7-yl}-methanesulfonamide]
The IC50 of the first is higher: 100 to 1000 nM for the first, less than 20 nM for the second.

First: CS(=O)(=O)Nc1ccc2c(c1)S(=O)(=O)N=C(C1=C(O)C3C4C=CC(C4)C3N(Cc3ccc(F)cc3)C1=O)N2 (racemic) [Example 9, (rac-di-exo)-N-{3-[3-(4-Fluoro-benzyl)-6-hydroxy-4-oxo-3-aza-tricyclo[6.2.1.0^2,7]undeca-5,9-dien-5-yl]-1,1-dioxo-1,4-dihydro-1λ^6-benzo[1,2,4]thiadiazin-7-yl}-methanesulfonamide]
Second: O=C1C(C2=NS(=O)(=O)c3cc(NS(=O)(=O)C4CC4)ccc3N2)=C(O)C2C3C=CC(C3)C2N1Cc1ccc(F)cc1 (racemic) [Example 46, (rac-di-exo)-Cyclopropanesulfonic acid{3-[3-(4-fluoro-benzyl)-6-hydroxy-4-oxo-3-aza-tricyclo[6.2.1.0^2,7]undeca-5,9-dien-5-yl]-1,1-dioxo-1,4-dihydro-1λ^6-benzo[1,2,4]thiadiazin-7-yl}-amide]
The IC50 of the first is higher: 20 to 100 nM for the first, less than 20 nM for the second.

Compared with `CS(=O)(=O)Nc1ccc2c(c1)S(=O)(=O)N=C(C1=C(O)C3C4C=CC(C4)C3N(Cc3ccc(F)cc3)C1=O)N2` (racemic) [Example 10, (rac-di-endo)-N-{3-[3-(4-Fluoro-benzyl)-6-hydroxy-4-oxo-3-aza-tricyclo[6.2.1.0^2,7]undeca-5,9-dien-5-yl]-1,1-dioxo-1,4-dihydro-1λ^6-benzo[1,2,4]thiadiazin-7-yl}-methanesulfonamide], `CN(c1ccc2c(c1)S(=O)(=O)N=C(C1=C(O)C3C4C=CC(C4)C3N(Cc3ccc(F)cc3)C1=O)N2)S(C)(=O)=O` (racemic) [Example 39, (rac-di-exo)-N-{3-[3-(4-Fluoro-benzyl)-6-hydroxy-4-oxo-3-aza-tricyclo[6.2.1.0^2,7]undeca-5,9-dien-5-yl]-1,1-dioxo-1,4-dihydro-1λ^6-benzo[1,2,4]thiadiazin-7-yl}-N-methyl-methanesulfonamide] is higher in IC50: 20 to 100 nM for the first, 1000 to 100000 nM for the second.

`Cc1cc(CN2C(=O)C(C3=NS(=O)(=O)c4cc(NS(C)(=O)=O)ccc4N3)=C(O)C3C4CCC(O4)C32)ccc1F` (racemic) [Example 12, (rac-di-exo)-N-{3-[3-(4-Fluoro-3-methyl-benzyl)-6-hydroxy-4-oxo-11-oxa-3-aza-tricyclo[6.2.1.0^2,7]undec-5-en-5-yl]-1,1-dioxo-1,4-dihydro-1λ^6-benzo[1,2,4]thiadiazin-7-yl}-methanesulfonamide] and `CC(C)CCN1C(=O)C(C2=NS(=O)(=O)c3cc(NS(C)(=O)=O)ccc3N2)=C(O)C2C3CCC(O3)C21` (racemic) [Example 25, (rac-di-exo)-N-{3-[6-Hydroxy-3-(3-methyl-butyl)-4-oxo-11-oxa-3-aza-tricyclo[6.2.1.0^2,7]undec-5-en-5-yl]-1,1-dioxo-1,4-dihydro-1λ^6-benzo[1,2,4]thiadiazin-7-yl}-methanesulfonamide] cannot be ordered by IC50: less than 20 nM for the first, less than 20 nM for the second.

First: CC(C)(C)CCN1C(=O)C(C2=NS(=O)(=O)c3cc(NS(C)(=O)=O)ccc3N2)=C(O)C2C3CCC(O3)C21 (racemic) [Example 13, (rac-di-exo)-N-{3-[3-(3,3-Dimethyl-butyl)-6-hydroxy-4-oxo-11-oxa-3-aza-tricyclo[6.2.1.0^2,7]undec-5-en-5-yl]-1,1-dioxo-1,4-dihydro-1λ^6-benzo[1,2,4]thiadiazin-7-yl}-methanesulfonamide]
Second: CS(=O)(=O)Nc1ccc2c(c1)S(=O)(=O)N=C(C1=C(O)C3C4CCC(O4)C3N(CCC3CC3)C1=O)N2 (racemic) [Example 23, (rac-di-exo)-N-{3-[3-(2-Cyclopropyl-ethyl)-6-hydroxy-4-oxo-11-oxa-3-aza-tricyclo[6.2.1.0^2,7]undec-5-en-5-yl]-1,1-dioxo-1,4-dihydro-1λ^6-benzo[1,2,4]thiadiazin-7-yl}-methanesulfonamide]
The IC50 of the first is higher: 20 to 100 nM for the first, less than 20 nM for the second.

`CC(C)CCN1C(=O)C(C2=NS(=O)(=O)c3cc(NS(C)(=O)=O)ccc3N2)=C(O)C2C3C=CC(C3)C21` (racemic) [Example 31, (rac-di-exo)-N-{3-[6-Hydroxy-3-(3-methyl-butyl)-4-oxo-3-aza-tricyclo[6.2.1.0^2,7]undeca-5,9-dien-5-yl]-1,1-dioxo-1,4-dihydro-1λ^6-benzo[1,2,4]thiadiazin-7-yl}-methanesulfonamide] and `CC(C)CCN1C(=O)C(C2=NS(=O)(=O)c3cc(NS(=O)(=O)C4CC4)ccc3N2)=C(O)C2C3C=CC(C3)C21` (racemic) [Example 45, (rac-di-exo)-Cyclopropanesulfonic acid{3-[6-hydroxy-3-(3-methyl-butyl)-4-oxo-3-aza-tricyclo[6.2.1.0^2,7]undeca-5,9-dien-5-yl]-1,1-dioxo-1,4-dihydro-1λ^6-benzo[1,2,4]thiadiazin-7-yl}-amide] fall in the same range of IC50: 20 to 100 nM for the first, 20 to 100 nM for the second.

`CC(C)(C)CCN1C(=O)C(C2=NS(=O)(=O)c3cc(NS(C)(=O)=O)ccc3N2)=C(O)C2C3C=CC(C3)C21` (racemic) [Example 32, (rac-di-exo)-N-{3-[3-(3,3-Dimethyl-butyl)-6-hydroxy-4-oxo-3-aza-tricyclo[6.2.1.0^2,7]undeca-5,9-dien-5-yl]-1,1-dioxo-1,4-dihydro-1λ^6-benzo[1,2,4]thiadiazin-7-yl}-methanesulfonamide] and `CC(C)(C)CCN1C(=O)C(C2=NS(=O)(=O)c3cc(NS(=O)(=O)C4CC4)ccc3N2)=C(O)C2C3C=CC(C3)C21` (racemic) [Example 43, (rac-di-exo)-Cyclopropanesulfonic acid{3-[3-(3,3-dimethyl-butyl)-6-hydroxy-4-oxo-3-aza-tricyclo[6.2.1.0^2,7]undeca-5,9-dien-5-yl]-1,1-dioxo-1,4-dihydro-1λ^6-benzo[1,2,4]thiadiazin-7-yl}-amide] fall in the same range of IC50: 20 to 100 nM for the first, 20 to 100 nM for the second.

First: CC(C)CCN1C(=O)C(C2=NS(=O)(=O)c3cc(I)ccc3N2)=C(O)C2C3CCC(O3)C21 (racemic) [Example 33, (rac-di-exo)-6-Hydroxy-5-(7-iodo-1,1-dioxo-1,4-dihydro-1λ^6-benzo[1,2,4]thiadiazin-3-yl)-3-(3-methyl-butyl)-11-oxa-3-aza-tricyclo[6.2.1.0^2,7]undec-5-en-4-one]
Second: CC(C)CCN1C(=O)C(C2=NS(=O)(=O)c3cc(NS(=O)(=O)C4CC4)ccc3N2)=C(O)C2C3CCC(O3)C21 (racemic) [Example 42, (rac-di-exo)-Cyclopropanesulfonic acid{3-[6-hydroxy-3-(3-methyl-butyl)-4-oxo-11-oxa-3-aza-tricyclo[6.2.1.0^2,7]undec-5-en-5-yl]-1,1-dioxo-1,4-dihydro-1λ^6-benzo[1,2,4]thiadiazin-7-yl}-amide]
The IC50 of the first is higher: 1000 to 100000 nM for the first, 20 to 100 nM for the second. The second is the more potent here.

`CC(C)(C)CCN1C(=O)C(C2=CS(=O)(=O)c3cc(NS(C)(=O)=O)ccc3N2)=C(O)C2C3C=CC(C3)C21` (racemic) [Example 36, (rac-di-exo)-N-{3-[3-(3,3-Dimethyl-butyl)-6-hydroxy-4-oxo-3-aza-tricyclo[6.2.1.0^2,7]undeca-5,9-dien-5-yl]-1,1-dioxo-1,4-dihydro-1λ^6-benzo[1,4]thiazin-7-yl}-methanesulfonamide] and `CC(C)CCN1C(=O)C(C2=CS(=O)(=O)c3cc(NS(C)(=O)=O)ccc3N2)=C(O)C2C3C=CC(C3)C21` (racemic) [Example 38, (rac-di-exo)-N-{3-[6-Hydroxy-3-(3-methyl-butyl)-4-oxo-3-aza-tricyclo[6.2.1.0^2,7]undeca-5,9-dien-5-yl]-1,1-dioxo-1,4-dihydro-1λ^6-benzo[1,4]thiazin-7-yl}-methanesulfonamide] fall in the same range of IC50: 20 to 100 nM for the first, 20 to 100 nM for the second.

`CS(=O)(=O)Nc1ccc2c(c1)S(=O)(=O)C=C(C1=C(O)C3C4C=CC(C4)C3N(Cc3ccc(F)cc3)C1=O)N2` (racemic) [Example 37, (rac-di-exo)-N-{3-[3-(4-Fluoro-benzyl)-6-hydroxy-4-oxo-3-aza-tricyclo[6.2.1.0^2,7]undeca-5,9-dien-5-yl]-1,1-dioxo-1,4-dihydro-1λ^6-benzo[1,4]thiazin-7-yl}-methanesulfonamide] was tested, and the IC50 was less than 20 nM.
